Laboratory results as given in patent US20040123342A1, “Monocotyledonous plant transformation” (Sugar Research & Development Corporation, priority 2000, published 2004).

Tests used:
[1] = system: TS leaf whorl explants obtained from the Q187 and Q124 sugarcane cultivars; test: Cross-testing of NAA and BA concentrations for shoot regeneration from thin section leaf whorl explants; format: cell-based; conditions: for optimal concentration in culture medium for regeneration: Q187 and Q124 TS leaf whorl explants
Protocol: Murashige & Skoog (MS) nutrient formulation supplemented with 30 g/L sucrose and 7.5 g/L Difco agar was used as the basal culture medium. Basal medium was, for certain phases of culture as will be described below, enriched with the cytokinin N^6-benzylaminopurine (BA) and the auxin a-napthaleneacetic acid NAA) together with anti-oxidants such as citric acid (CA), ascorbic acid (AA), or dithiothreitol (DTT). The pH of the medium was adjusted to 5.7 before autoclaving at 11kPa for 20 minutes at 120° C. TS explants were cultured in various orientations either in tissue culture dishes (90×14 mm) with 40 ml agar- solidified medium or in a 100 mL baby food jar containing 40 ml liquid medium, or on membrane rafts with flotation kept in a polypropylene container with 40 ml liquid medium. Liquid cultures were agitated continuously on a gyratory shaker at 120 rpm. All cultures were incubated at […] under 16 hr photoperiod provided by cool, white fluorescent tubes, Subculturing was carried out at least once a week, or more frequently if medium or TS turned brown due to phenolic exudation. Cross-testing of NAA and BA concentrations was also performed using TS leaf whorl explants obtained from the […] and […] sugarcane cultivars. […] However, higher concentrations of NAA (10-40 μM) promoted a slightly […] percentage of explants producing shoots. There was no clear trend in terms of the number of shoots produced with regard to either NAA or BA concentration, Generally, 4 μM BA was preferred at any given concentration of NAA, while NAA was optimal when present in culture medium at a concentration of 10 μM.

[2] = system: leaf TS explants (sugarcane cultivar Q165); test: Effect of selection agent on shoot regeneration from bombarded leaf TS explants; format: cell-based; conditions: 100 mg/L in medium, transfer at 3 days after bombardment
Protocol: Sugarcane leaf sheath tissue taken from just above the meristem was taken from cultivar Q165 plants. Transverse thin section explants (2-3 mm) of leaf whorl were obtained from the harvested tissue. These are generally referred to as leaf thin sections.
A number of preliminary experiments were performed to detennije parametens which provided optimal regeneration from transformed tissue while providing optimal selection of transformants.
Similar results were obtained when bombarded TS explants were transferred to medium containing even low levels of selection agent.

Compound	optimal concentration in culture medium for regeneration [1]	regeneration efficiency, 4 μM vs 8 μM BA ([1]; cultivar Q124, any of the regeneration criteria examined)	regeneration efficiency, 4 μM vs 8 μM BA ([1]; cultivar Q187, TS leaf whorl explants)	percentage of explants producing shoots ([1]; higher concentrations of NAA (10-40 μM))	shoot regeneration [2]
c1ccc(CNc2ncnc3nc[nH]c23)cc1 [BA, N^6-benzylaminopurine]	4 µM	no clear preference	4 μM BA was clearly more efficient than 8 μM BA		
O=C(O)Cc1cccc2ccccc12 [NAA, a-napthaleneacetic acid]	10 µM			slightly hither percentage of explants producing shoots	
paromomycin sulphate					no shoot regeneration
